Assay results as given in PubChem BioAssay (NCI).
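Five concentrations, 48 hours, 96-well plates. Here, GI50 denotes the concentration required for 50% inhibition of growth. TGI denotes the concentration required for complete inhibition of growth.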

Experiments:
Test in all cases: NCI anticancer screen, dose series, 48 h
OVCAR-8 ovarian = tested on: OVCAR-8 ovarian
SN12C renal = tested on: SN12C renal
LOX IMVI melanoma = tested on: LOX IMVI melanoma
NCI-H460 lung = tested on: NCI-H460 lung
SK-MEL-2 melanoma = tested on: SK-MEL-2 melanoma
SF-539 CNS = tested on: SF-539 CNS
HCC-2998 colon = tested on: HCC-2998 colon
TK-10 renal = tested on: TK-10 renal
UO-31 renal = tested on: UO-31 renal
RXF 393 renal = tested on: RXF 393 renal
A549 NSCLC = tested on: A549 NSCLC
K-562 leukemia = tested on: K-562 leukemia
SK-MEL-5 melanoma = tested on: SK-MEL-5 melanoma
SK-MEL-28 melanoma = tested on: SK-MEL-28 melanoma
MDA-MB-231 breast = tested on: MDA-MB-231 breast
NCI-H23 lung = tested on: NCI-H23 lung
PC-3 prostate = tested on: PC-3 prostate
HCT-15 colon = tested on: HCT-15 colon
A498 renal = tested on: A498 renal
SF-268 CNS = tested on: SF-268 CNS
SF-295 CNS = tested on: SF-295 CNS
HOP-62 NSCLC = tested on: HOP-62 NSCLC
OVCAR-4 ovarian = tested on: OVCAR-4 ovarian
MCF7 breast = tested on: MCF7 breast
U251 CNS = tested on: U251 CNS
HOP-92 NSCLC = tested on: HOP-92 NSCLC
SW-620 colon = tested on: SW-620 colon
CCRF-CEM leukemia = tested on: CCRF-CEM leukemia
DU-145 prostate = tested on: DU-145 prostate
KM12 colon = tested on: KM12 colon
M14 melanoma = tested on: M14 melanoma
MOLT-4 leukemia = tested on: MOLT-4 leukemia
NCI-H226 lung = tested on: NCI-H226 lung
786-0 renal = tested on: 786-0 renal
NCI-H522 lung = tested on: NCI-H522 lung
CAKI-1 renal = tested on: CAKI-1 renal
ACHN renal = tested on: ACHN renal
BT-549 breast = tested on: BT-549 breast
MALME-3M melanoma = tested on: MALME-3M melanoma
T-47D breast = tested on: T-47D breast
HT29 colon = tested on: HT29 colon
HL-60(TB) leukemia = tested on: HL-60(TB) leukemia
SK-OV-3 ovarian = tested on: SK-OV-3 ovarian
COLO 205 colon = tested on: COLO 205 colon
UACC-62 melanoma = tested on: UACC-62 melanoma
SNB-75 CNS = tested on: SNB-75 CNS
HCT-116 colon = tested on: HCT-116 colon
OVCAR-5 ovarian = tested on: OVCAR-5 ovarian
IGROV1 ovarian = tested on: IGROV1 ovarian
RPMI-8226 leukemia = tested on: RPMI-8226 leukemia
HS 578T breast = tested on: HS 578T breast
SNB-19 CNS = tested on: SNB-19 CNS
NCI/ADR-RES ovarian = tested on: NCI/ADR-RES ovarian
SR leukemia = tested on: SR leukemia
MDA-MB-435 = tested on: MDA-MB-435
UACC-257 melanoma = tested on: UACC-257 melanoma

Nc1ccc(-c2nnc(SCc3ccc(O)c4ncccc34)o2)cc1
GI50 (OVCAR-8 ovarian): 41.8 nM
TGI (OVCAR-8 ovarian): > 100000 nM
GI50 (SN12C renal): 39.2 nM
TGI (SN12C renal): > 100000 nM
GI50 (LOX IMVI melanoma): 30.5 nM
TGI (LOX IMVI melanoma): > 33700 nM
GI50 (NCI-H460 lung): 36.7 nM
GI50 (SK-MEL-2 melanoma): 79.2 nM
TGI (SK-MEL-2 melanoma): 2730 nM
GI50 (SF-539 CNS): 64.2 nM
TGI (SF-539 CNS): 8750 nM
GI50 (HCC-2998 colon): 177 nM
TGI (HCC-2998 colon): > 100000 nM
GI50 (TK-10 renal): 132 nM
GI50 (UO-31 renal): 61.9 nM
TGI (UO-31 renal): 1910 nM
GI50 (RXF 393 renal): 90.6 nM
TGI (RXF 393 renal): > 85900 nM
GI50 (A549 NSCLC): 41.7 nM
TGI (A549 NSCLC): > 100000 nM
GI50 (K-562 leukemia): 44.2 nM
TGI (K-562 leukemia): > 100000 nM
GI50 (SK-MEL-5 melanoma): 49.1 nM
GI50 (SK-MEL-28 melanoma): 139 nM
TGI (SK-MEL-28 melanoma): > 100000 nM
GI50 (MDA-MB-231 breast): 154 nM
TGI (MDA-MB-231 breast): 22600 nM
GI50 (NCI-H23 lung): 49.2 nM
TGI (NCI-H23 lung): > 26900 nM
GI50 (PC-3 prostate): 50.2 nM
TGI (PC-3 prostate): > 100000 nM
GI50 (HCT-15 colon): 38.2 nM
TGI (HCT-15 colon): > 100000 nM
GI50 (A498 renal): 317 nM
TGI (A498 renal): 3300 nM
GI50 (SF-268 CNS): 64.1 nM
TGI (SF-268 CNS): > 75300 nM
GI50 (SF-295 CNS): 41.2 nM
TGI (SF-295 CNS): > 39000 nM
GI50 (HOP-62 NSCLC): 81.5 nM
TGI (HOP-62 NSCLC): 7620 nM
GI50 (OVCAR-4 ovarian): 259 nM
TGI (OVCAR-4 ovarian): > 100000 nM
GI50 (MCF7 breast): 38.7 nM
TGI (MCF7 breast): > 100000 nM
GI50 (U251 CNS): 35.4 nM
TGI (U251 CNS): 11800 nM
GI50 (HOP-92 NSCLC): 23.8 nM
TGI (HOP-92 NSCLC): 72.4 nM
GI50 (SW-620 colon): 61.8 nM
TGI (SW-620 colon): > 100000 nM
GI50 (CCRF-CEM leukemia): 61.7 nM
TGI (CCRF-CEM leukemia): > 100000 nM
GI50 (DU-145 prostate): 55 nM
TGI (DU-145 prostate): > 38500 nM
GI50 (KM12 colon): 128 nM
TGI (KM12 colon): > 100000 nM
GI50 (M14 melanoma): 60.4 nM
TGI (M14 melanoma): 2810 nM
GI50 (MOLT-4 leukemia): 124 nM
TGI (MOLT-4 leukemia): > 100000 nM
GI50 (NCI-H226 lung): 441 nM
TGI (NCI-H226 lung): > 100000 nM
GI50 (786-0 renal): 224 nM
TGI (786-0 renal): 16700 nM
GI50 (NCI-H522 lung): 44 nM
TGI (NCI-H522 lung): > 50700 nM
GI50 (CAKI-1 renal): 179 nM
TGI (CAKI-1 renal): > 68100 nM
GI50 (ACHN renal): 72.6 nM
TGI (ACHN renal): > 31900 nM
GI50 (BT-549 breast): 55.8 nM
TGI (BT-549 breast): > 100000 nM
GI50 (MALME-3M melanoma): 92.7 nM
TGI (MALME-3M melanoma): 31900 nM
GI50 (T-47D breast): 85 nM
TGI (T-47D breast): > 100000 nM
GI50 (HT29 colon): 485 nM
TGI (HT29 colon): > 100000 nM
GI50 (HL-60(TB) leukemia): 98.7 nM
TGI (HL-60(TB) leukemia): 1220 nM
GI50 (SK-OV-3 ovarian): 80.7 nM
TGI (SK-OV-3 ovarian): 577 nM
GI50 (COLO 205 colon): 442 nM
TGI (COLO 205 colon): 2450 nM
GI50 (UACC-62 melanoma): 249 nM
TGI (UACC-62 melanoma): 2280 nM
GI50 (SNB-75 CNS): 112 nM
TGI (SNB-75 CNS): 12900 nM
GI50 (HCT-116 colon): 37.9 nM
TGI (HCT-116 colon): 28800 nM
GI50 (OVCAR-5 ovarian): 498 nM
TGI (OVCAR-5 ovarian): > 100000 nM
GI50 (IGROV1 ovarian): 84.6 nM
TGI (IGROV1 ovarian): > 41900 nM
GI50 (RPMI-8226 leukemia): 46.1 nM
TGI (RPMI-8226 leukemia): > 100000 nM
GI50 (HS 578T breast): 50.9 nM
TGI (HS 578T breast): > 100000 nM
GI50 (SNB-19 CNS): 43.8 nM
TGI (SNB-19 CNS): > 51800 nM
GI50 (NCI/ADR-RES ovarian): 43.9 nM
TGI (NCI/ADR-RES ovarian): > 100000 nM
GI50 (SR leukemia): 89.1 nM
TGI (SR leukemia): > 100000 nM
GI50 (MDA-MB-435): 45.4 nM
TGI (MDA-MB-435): > 100000 nM
GI50 (UACC-257 melanoma): 207 nM
TGI (UACC-257 melanoma): 910 nM
